Test results published in EP0153538A1, “Derivatives of melilotic acid, and medicaments containing them” (Laboratoire Marcel Richard Société anonyme dite, priority 1984, dated 1985).
Read-outs that look alike come from different tables or passages of the source.

Tests used:
rat anesthésié = experiment: Blood pressure in the anaesthetised rat after IV administration; type: in vivo; details: rat anesthésié à l'éthylméthane, IV 100 mg/Kg
Method: Sur le rat anesthésié à l'éthylméthane,on enregistre après administration IV. de 100 mg/Kg de produit selon l'invention une légère hypotension, soit une baisse de 15 %.

[1] = system: agrégation plaquettaire provoquée par l'ADP; experiment: Inhibition of ADP-induced platelet aggregation, rabbit; type: in vivo; details: lapin, 100 mg/Kg
Method: (§1) Ce produit inhibe l'agrégation plaquettaire provoquée par l'ADP (adénosine diphosphate) : • sur le sang humain, inhibition de 40 % à 100 mg/Kg, sur le rat et le lapin, inhibition de 60 Z à 100 mg/Kg.

[2] = system: artériopathies périphériques, oedème de la cheville, varices; experiment: Therapeutic application (peripheral arteriopathies, ankle oedema, varices); type: in vivo
souris [3] = experiment: Hot plate test (analgesia) in mice; type: in vivo; details: test à la plaque chauffante, 500 mg/Kg
Method: (§2) En ce qui concerne l'activité analgésique, le produit donne dans le test à la phénylbenzoquinone et dans le test à la plaque chauffante chez la souris une protection de 88 % à 500 mg/Kg.

chien anesthésié = experiment: Cardiovascular and respiratory effects in the pentobarbital-anaesthetised dog after IV injection; type: in vivo; details: chien anesthésié au Pentobarbital, IV 50 mg/Kg
souris [4] = experiment: Phenylbenzoquinone test (analgesia) in mice; type: in vivo; details: test à la phénylbenzoquinone, 500 mg/Kg
Method: as §2

[5] = system: agrégation plaquettaire provoquée par l'ADP; experiment: Inhibition of ADP-induced platelet aggregation, human blood; type: cell-based; details: sang humain, 100 mg/Kg
Method: as §1

[6] = system: agrégation plaquettaire provoquée par l'ADP; experiment: Inhibition of ADP-induced platelet aggregation, rat; type: in vivo; details: 100 mg/Kg
Method: as §1

Solubility (qualitative) = type: physicochemical
Method: Plus particulièrement, l'acide fluoro-5 acétyl mélilotique se présente sous la forme d'une poudre cristalline blanche, peu soluble dans l'eau, mais soluble dans l'alcool, l'acétone et dans les solvants organiques usuels. Son point de fusion est de 96-98°C.
12 g d'acide fluoro-5 acétoxy-2 cinnamique sont dissous dans 120cm3 acétate d'éthyle avec 1,5 g de palladium sur charbon à 10 % et hydro- gènés dans l'appareil de Parr sous 5 atmosphères d'hydrogène pendant 1 heure; on filtre et concentre sous vide pour obtenir un résidu cristallisé d'acide fluoro-5 acétylmélilotique pur peu soluble dans l'eau, soluble dans l'alcool, l'acétone et les solvants organiques usuels.

[7] = Acute toxicity in male SWISS mice; details: mouse, in vivo, souris mâle SWISS, read-out: toxicité (converted)
Method: Sa toxicité est de 1 500 mg/Kg par voie orale et de 750 mg/Kg par voie intrapéritonéale, déterminée sur la souris mâle-de la souche SWISS.

For `CC(=O)Oc1ccc(F)cc1CCC(=O)O` [acide fluoro-5 acétyl mélilotique], the “hypotension (baisse)” value (rat anesthésié) was 15%, the “inhibition de l'agrégation plaquettaire provoquée par l'ADP” value [1] was 60% and the “application thérapeutique” value [2] was “résultats favorables”. For the same compound, the protection (souris [3]) was 88%, the “augmentation du débit” value (chien anesthésié) was 65% and the battements (chien anesthésié) was “renforcement”. For the same compound, the “diminution du rythme respiratoire” value (chien anesthésié) was 25%, the fréquence cardiaque (chien anesthésié) was “sans modification” and the hypotension (chien anesthésié) was 7%. For the same compound, the protection (souris [4]) was 88%, the “inhibition de l'agrégation plaquettaire provoquée par l'ADP” value [5] was 40% and the inhibition de l'agrégation plaquettaire provoquée par l'ADP [6] was 60%. For the same compound, the “solubilité dans l'alcool, l'acétone et les solvants organiques usuels” value (Solubility (qualitative); alcool, acétone, solvants organiques usuels) was “soluble”, the “solubilité dans l'eau” value (Solubility (qualitative); eau) was “peu soluble” and the LD50 ([7]; ip, voie intrapéritonéale) was 750 mg/kg. The LD50 ([7]; po, voie orale) was 1500 mg/kg.
